The record followed here is ChEMBL document CHEMBL2034916, “Thiourea compound AW00178 sensitizes human H1299 lung carcinoma cells to TRAIL-mediated apoptosis” (2012).

Experiment [1] is described as follows: Down regulation of cIAP2 expression in human H1299 cells at 0.1 to 30 uM after 24 hrs by Western blot analysis in presence of 100 ug/ml TRAIL and PI3K inhibitor LY294002. Type of experiment: functional, cell-based. The following applies: NCI-H1299.
Experiment [2] has as its system NCI-H1299. The experiment is described as follows: Induction of DR5 expression in human H1299 cells at 0.1 to 30 uM after 24 hrs by Western blot analysis. Type of experiment: functional, cell-based. A general note: Immunoblotting shows a protein as a band on a membrane.
Experiment [3] addresses T1, c-Jun N-terminal kinase, JNK (Homo sapiens) (UniProt P45983+P53779+P45984). Nature of the experiment: Induction of JNK-mediated CHOP expression in human H1299 cells at 0.1 to 30 uM after 24 hrs by Western blot analysis. Type of experiment: cell-based.
Experiment [4] relates to H1299. Nature of the experiment: Inhibition of Akt phosphorylation on human H1299 cells after 24 hrs by Western blot analysis. Type of experiment: cell-based.
For experiment [5], the system named is H1299. The experiment is described as follows: Inhibition of Akt in human H1299 cells assessed as decrease in survivin expression after 24 hrs by Western blot analysis. Type of experiment: cell-based.
A short description of experiment [6]: Down regulation of cIAP2 expression in human H1299 cells at 0.1 to 30 uM after 24 hrs by Western blot analysis. Type of experiment: functional, cell-based. The following applies: NCI-H1299.
The nature of experiment [7]: Down regulation of XIAP expression in human H1299 cells at 0.1 to 30 uM after 24 hrs by Western blot analysis. Type of experiment: functional, cell-based. The following applies: NCI-H1299.
Experiment [8] in a line: Down regulation of XIAP expression in human H1299 cells at 0.1 to 30 uM after 24 hrs by Western blot analysis in presence of 100 ug/ml TRAIL and PI3K inhibitor LY294002. Type of experiment: functional, cell-based. To be noted: NCI-H1299.
In experiment [9] the test system is NCI-H1299. Nature of the experiment: Induction of apoptosis in human H1299 cells assessed as apoptotic cells at 5 uM after 48 hrs by annexinV/propidium iodide staining-based flow cytometric analysis (reference value: 1.35%). Type of experiment: functional. A general note: A flow cytometer gives signals particle by particle.
For experiment [10], the system named is NCI-H1299. Nature of the experiment: Induction of apoptosis in human H1299 cells assessed as apoptotic cells at 10 uM after 48 hrs by annexinV/propidium iodide staining-based flow cytometric analysis (reference value: 1.35%). Type of experiment: functional.
Experiment [11] can be described thus: Upregulation of CHOP in human H1299 cells at 10 uM after 24 hrs by Western blot analysis in presence of 100 ug/ml TRAIL and pretreated with 10 uM JNK inhibition SP600125. To be noted: NCI-H1299. Type of experiment: functional, cell-based.
For experiment [12], the system named is H1299. The experiment is described as follows: Inhibition of Akt phosphorylation in human H1299 cells at 5 to 10 uM after 24 hrs by Western blot analysis in presence of 100 ug/ml TRAIL. Type of experiment: cell-based.
Experiment [13] addresses T1, c-Jun N-terminal kinase, JNK (Homo sapiens). The experiment is described as follows: Induction of JNK-mediated c-Jun phosphorylation in human H1299 cells at 10 uM for 30 mins cotreated with TRAIL by Western blot analysis pretreated with 10 uM JNK inhibitor SP600125 for 1 hr. Type of experiment: cell-based.
The target is the same in experiment [14]. The experiment is described as follows: Induction of JNK-mediated c-Jun phosphorylation in human H1299 cells at 5 to 10 uM after 24 hrs by Western blot analysis in presence of 100 ug/ml TRAIL. Type of experiment: cell-based.
Experiment [15] concerns H1299. The experiment is described as follows: Inhibition of Akt phosphorylation in human H1299 cells at 5 to 10 uM after 24 hrs by Western blot analysis. Type of experiment: cell-based.
Experiment [16] deals with T1, c-Jun N-terminal kinase, JNK (Homo sapiens). The experiment is described as follows: Induction of JNK-mediated c-Jun phosphorylation in human H1299 cells at 5 to 10 uM after 24 hrs by Western blot analysis. Type of experiment: cell-based.
The nature of experiment [17]: Down regulation of cIAP1 expression in human H1299 cells at 10 uM after 24 hrs by Western blot analysis in presence of 100 ug/ml TRAIL. Type of experiment: functional, cell-based. To be noted: NCI-H1299.
Experiment [18] can be described thus: Down regulation of cIAP2 expression in human H1299 cells at 10 uM after 24 hrs by Western blot analysis in presence of 100 ug/ml TRAIL. Type of experiment: functional, cell-based. To be noted: NCI-H1299.
Experiment [19] in a line: Down regulation of XIAP expression in human H1299 cells at 5 to 10 uM after 24 hrs by Western blot analysis in presence of 100 ug/ml TRAIL. Type of experiment: functional, cell-based. The following applies: NCI-H1299.
Experiment [20] is described as follows: Down regulation of Bcl-Xl expression in human H1299 cells at 10 uM after 24 hrs by Western blot analysis in presence of 100 ug/ml TRAIL. Type of experiment: functional, cell-based. The following applies: NCI-H1299.
Experiment [21] can be described thus: Down regulation of AKT-mediated survivin expression in human H1299 cells at 5 to 10 uM after 24 hrs by Western blot analysis in presence of 100 ug/ml TRAIL. Type of experiment: cell-based.
The nature of experiment [22]: Down regulation of AKT-mediated survivin expression in human H1299 cells at 5 to 10 uM after 24 hrs by Western blot analysis. Type of experiment: cell-based.
Experiment [23] can be described thus: Down regulation of XIAP expression in human H1299 cells at 5 to 10 uM after 24 hrs by Western blot analysis. Type of experiment: functional, cell-based. The following applies: NCI-H1299.
Experiment [24] addresses T1, c-Jun N-terminal kinase, JNK (Homo sapiens). The experiment is described as follows: Induction of JNK-mediated CHOP protein expression in human H1299 cells after 24 hrs by Western blot analysis. Type of experiment: cell-based.
Experiment [25] has as its system NCI-H1299. The experiment is described as follows: Induction of DR5 protein expression in human H1299 cells after 24 hrs by Western blot analysis. Type of experiment: functional, cell-based.
Experiment [26] deals with NCI-H1299. Nature of the experiment: Induction of TRAIL-mediated apoptosis in human H1299 cells assessed as caspase 8 activation at 5 to 10 uM after 24 hrs by fluorometric assay. Type of experiment: functional, cell-based.
The subject of experiment [27] is NCI-H1299. The experiment is described as follows: Induction of TRAIL-mediated apoptosis in human H1299 cells assessed as caspase 8 activation at 5 to 10 uM after 24 hrs by fluorometric assay in presence of pan-caspase inhibitor Z-VAD-FMK. Type of experiment: functional, cell-based.
Experiment [28] has as its system NCI-H1299. The experiment is described as follows: Induction of apoptosis in human H1299 cells assessed as apoptotic cells at 10 uM after 48 hrs by annexinV/propidium iodide staining-based flow cytometric analysis in presence of 100 ug/ml TRAIL (reference value: 1.35%). Type of experiment: functional.
The subject of experiment [29] is NCI-H1299. The experiment is described as follows: Induction of apoptosis in human H1299 cells assessed as apoptotic cells at 5 uM after 48 hrs by annexinV/propidium iodide staining-based flow cytometric analysis in presence of 100 ug/ml TRAIL (reference value: 1.35%). Type of experiment: functional.

The structures appear in SMILES notation. Activity calls are given as the source filed them. No cut-off for these calls is given here.

For `O=c1cc(N2CCOCC2)oc2c(-c3ccccc3)cccc12`, the outcome in [1] and in experiment [6] was Active. For the same compound, the outcome (in the experiment with NCI-H1299 [2]; in experiment [3]) was inactive. In addition, the inhibition result in the experiment with H1299 [4] and with H1299 [5] was “Dose-dependent effect” throughout.
With `Cc1ccc(Cl)cc1NC(=S)Nc1ccc(-n2nccc2C(F)(F)F)cc1`, the outcome in [7], in experiment [8], in experiment [13], in [14], in experiment [16] and in experiment [17] was Active. The outcome in [18], in [19], in experiment [20], in experiment [21], in experiment [22] and in experiment [23] was Active. In addition, the result (in experiment [24]; in the experiment on NCI-H1299 [25]; in the experiment on NCI-H1299 [26]) was Active. Further, the Activity with NCI-H1299 [9] was found to be 1.52%; in the experiment on NCI-H1299 [10], 3.25%; in the experiment with NCI-H1299 [28] it was 39.4%; in the experiment with NCI-H1299 [29], 6.59%. Further, the outcome (in [11]; in the experiment with NCI-H1299 [27]) was inactive. For the same compound, the inhibition result in the experiment on H1299 [12] and in the experiment with H1299 [15] was “Active” in each case.
